Legend:
[1] = test system: mildew; assay: Outdoor exposure of wood-plastic composite panels including biocides, mildew growth (ASTM D 3274-94); design: key: 10 - No mildew growth; 9 - Very slight growth; 8 - Slight (very good); 7 - Some growth (good); 6 - Moderate growth (considered a failure); 4 - Pronounced growth; 2 - Severe growth; 0 - Very severe growth; settings: WPC panel, Miami; for Mildew Growth 3 Months: 3 months outdoors; for Mildew Growth 6 Months: 6 months outdoors; for Mildew Growth 9 Months: 9 months outdoors; for Mildew Growth 12 Months: 12 months outdoors
Protocol: Several candidate biocides were tested in a typical WPC formulation, which is presented below in Table I.
WPC panels for evaluation were prepared by blending the above ingredients in a drum mixer for 30 to 35 minutes at 30 to 40 rpm and then processing the resulting mixture through a Tek Milacron extruder. This extruder is a twin-screw counter rotating conical unit having four temperature zones, for a total heated length of ten feet (3.0 m), and a 3.38 inch (86 mm) die at the exit. The temperature of extrusion was in the range of 340 to 350 degrees F. (171 to 177 degrees C.) and the WPC boards so produced had dimensions of about 5 feet (152 cm)×5½ inches (14 cm)×1 inch (2.5 cm). The WPC boards were subsequently cut into panels of one foot (30 cm) length.
Wood-plastic composite panels incorporating various biocides were prepared in accordance with the procedure set forth above in Example 1. The panels were evaluated for mildew growth by being exposed to the weather outdoors in Miami, Fla. for one year under a protocol publicly known as ASTM D 3274-94 of ASTM International (originally known as the American Society for Testing and Materials).
For the purposes of this evaluation, any biocide or combination of biocides which prevents moderate (or worse) mildew growth for an outdoor exposure period of at least 9 months is considered to have passed the weathering test.

[2] = test system: Aspergillus niger, also known as ATCC 6275; assay: MIC by spiral plater (spiral gradient endpoint) and Berenbaum FIC synergy against A. niger; type: cell-based; settings: for MIC ppm, average of spiral plater replications: malt agar, 48 hours at 28° C., ppm of active fungicide, mean of twelve replications
Text: A method for assessing synergy of a multi-component mixture having biologically active components is described in a technical article by M. C. Berenbaum entitled “Synergy, additivism and antagonism in immunosuppression”, which was published in the Journal of Clinical Experimental Immunology. See Clinical Exp. Immunol. 28, p. 1-18 (1977).
In the method, the dose of each agent which provides a synergistic or antagonistic effect in the overall biological effect of a mixture against a particular organism is expressed as a fraction of the dose that causes the effect when the respective agent is tested alone (hereinafter referred to as “dose of X/Xe”, “Fractional Inhibitory Concentration of agent X” or “FICX”). If the sum of the FICX's for a combination of active ingredients in a mixture is 1, the combination is additive in its effect. If the sum is less than one, the combination is synergistic. If the sum is greater than one, the combination is antagonistic. The general relationship (which may be an equality or an inequality) expressed for multi-component mixtures of biologically active components is herein designated Equation 1, as follows: […]
In order to apply the Berenbaum method to compositions of the invention, mixtures of fungicidal agents are prepared. The fungicidal activity of each of the mixtures is determined and expressed in terms of a minimum inhibitory concentration, which is just sufficient to inhibit the growth of a given microbe (hereinafter referred to “MIC”) for each of the mixtures. These MICs are subsequently used to calculate FICX for each agent X of a particular mixture. All of the FICX 's for each mixture (also known as the doses of X/Xe for the mixture) are summed, and the criteria for synergism, additivism and antagonism (as set forth above in Equation 1) are used to assess the mixture.
Minimum Inhibitory Concentrations (hereinafter referred to as “MIC”) for various mixtures of biocides were determined against spore suspensions of the fungus Aspergillus niger, also known as ATCC 6275 (hereinafter referred to as “A. niger”). […]

[3] = test system: Aureobasidium pullulans, also known as ATCC 9348; assay: MIC by spiral plater and Berenbaum FIC synergy against A. pullulans; type: cell-based; settings: mean of twelve replications
[4] = 0.2 mass % biocide (0.2 mass % active)
[5] = 0.22 mass % biocide (0.22 mass % active)
[6] = 0.23 mass % biocide (0.23 mass % active)
[7] = 4.0 mass % biocide (4.0 mass % active)

For `COC(=O)Nc1nc2ccccc2[nH]1` [98% BCM, methyl-N-benzimidazol-2-ylcarbamate], the “Mildew Growth 3 Months” value [1, 4] was 5, the “Mildew Growth 6 Months” value [1, 4] was 1 and the “Mildew Growth 9 Months” value [1, 4] was 2. For the same compound, the “Mildew Growth 12 Months” value [1, 4] was 4.

With `COC(=O)Nc1nc2ccccc2[nH]1` [BCM, 2-(methoxycarbonylamino)benzimidazole] the MIC ([2]; Aspergillus niger, ATCC6275, pure BCM, read-out: MIC, average of values for Mixtures No. 2 and 3) was 2.6 µg/mL.

With `O=C1C2CC=CCC2C(=O)N1SC(Cl)(Cl)Cl` (stereo not drawn) [Captan] the “Mildew Growth 3 Months” value [1, 5] was 9, the “Mildew Growth 6 Months” value [1, 5] was 1 and the “Mildew Growth 9 Months” value [1, 5] was 2. For the same compound, the “Mildew Growth 12 Months” value [1, 5] was 4.

`N#Cc1c(Cl)c(Cl)c(Cl)c(C#N)c1Cl` [Chlorothalonil] was tested, and the “Mildew Growth 3 Months” value [1, 4] was 9, the “Mildew Growth 6 Months” value [1, 4] was 2 and the “Mildew Growth 9 Months” value [1, 4] was 0. The “Mildew Growth 12 Months” value [1, 4] was 3.

For `O=C1c2ccccc2C(=O)N1SC(Cl)(Cl)Cl` [Folpet], the “Mildew Growth 3 Months” value [1, 6] was 10, the “Mildew Growth 6 Months” value [1, 6] was 2 and the “Mildew Growth 9 Months” value [1, 6] was 0. For the same compound, the “Mildew Growth 12 Months” value [1, 6] was 0.

For `CCCCNC(=O)OCC#CI` [IPBC, 3-iodo-2-propynyl butyl carbamate], the “MIC ppm, average of spiral plater replications” value (shortened to “MIC ppm, average”) [2] was 0.7 ppm.

Zinc Borate [99% Zinc Borate] was tested, and the “Mildew Growth 3 Months” value [1, 7] was 8, the “Mildew Growth 6 Months” value [1, 7] was 2 and the “Mildew Growth 9 Months” value [1, 7] was 6. The “Mildew Growth 12 Months” value [1, 7] was 5.

For zinc borate [Mixture No. 4], the “MIC ppm, average” value [3] was over 1000 ppm.

In the case of zinc borate [ZB], the “MIC ppm, average” value [2] is reported as 12 ppm.

From patent publication US8772334B2, “Synergistic antimicrobial mixtures” (priority 2008, dated 2014)
